We go through 16 compounds from ChEMBL document CHEMBL5226315, “Strategies for Targeting Serine/Threonine Protein Phosphatases with Small Molecules in Cancer” (J Med Chem, 2021).

Starred links: 1 amine or outer side, 2 acyl side, 3 side chain; linkers in the order of their positions; H or OH if unused. Positions of bridges follow the written chain, without caps; N, C: chain ends. Non-standard residues stand in square brackets, D forms with d. Residues, ends and D or L forms follow the SMILES beside them. Adda = CO[C@@H](Cc1ccccc1)[C@@H](C)/C=C(C)/C=C/[C@H](N[*:1])[C@H](C)C(=O)[*:2]; dAsp(3S-Me) = C[C@H](C(=O)[*:3])[C@@H](N[*:1])C(=O)[*:2]; d(γGlu) = O=C(O)[C@@H](CCC(=O)[*:2])N[*:1]; NMeDha = C=C(NC)C(=O)O

For assay [1], the system named is NCI-H358. The experiment in a line: Anticancer activity against human NCI-H358 cells. In kind it is functional.
Assay [2] can be described thus: Inhibition of rabbit skeletal muscle PP1 using [3H]-phosphohistone as substrate. On the set-up: species or system Oryctolagus cuniculus.
Assay [3] is described as follows: Inhibition of rabbit skeletal muscle PP2A using [3H]-phosphohistone as substrate. On the set-up: species or system Oryctolagus cuniculus.
Assay [4] can be described thus: Inhibition of PP7 (unknown origin). On the set-up: species or system Homo sapiens.
Assay [5] can be described thus: Inhibition of porcine testis PP4. On the set-up: species or system Sus scrofa.
The target of assay [6] is T1, Serine/threonine-protein phosphatase 6 catalytic subunit (Homo sapiens, UniProt O00743).
T1 sequence (O00743 whole entry): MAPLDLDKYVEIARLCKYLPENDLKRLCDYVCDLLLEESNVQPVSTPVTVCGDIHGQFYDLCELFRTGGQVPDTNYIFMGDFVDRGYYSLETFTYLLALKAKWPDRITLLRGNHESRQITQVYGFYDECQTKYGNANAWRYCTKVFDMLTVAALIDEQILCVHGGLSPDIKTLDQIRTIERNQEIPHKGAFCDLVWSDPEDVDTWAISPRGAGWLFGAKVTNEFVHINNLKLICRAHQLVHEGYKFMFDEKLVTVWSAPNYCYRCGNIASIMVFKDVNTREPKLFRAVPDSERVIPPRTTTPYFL
The experiment in a line: Inhibition of PP6 (unknown origin).

The target in assay [7] is T2, Serine/threonine-protein phosphatase 5 (Homo sapiens, UniProt P53041).
T2 sequence (P53041 whole entry): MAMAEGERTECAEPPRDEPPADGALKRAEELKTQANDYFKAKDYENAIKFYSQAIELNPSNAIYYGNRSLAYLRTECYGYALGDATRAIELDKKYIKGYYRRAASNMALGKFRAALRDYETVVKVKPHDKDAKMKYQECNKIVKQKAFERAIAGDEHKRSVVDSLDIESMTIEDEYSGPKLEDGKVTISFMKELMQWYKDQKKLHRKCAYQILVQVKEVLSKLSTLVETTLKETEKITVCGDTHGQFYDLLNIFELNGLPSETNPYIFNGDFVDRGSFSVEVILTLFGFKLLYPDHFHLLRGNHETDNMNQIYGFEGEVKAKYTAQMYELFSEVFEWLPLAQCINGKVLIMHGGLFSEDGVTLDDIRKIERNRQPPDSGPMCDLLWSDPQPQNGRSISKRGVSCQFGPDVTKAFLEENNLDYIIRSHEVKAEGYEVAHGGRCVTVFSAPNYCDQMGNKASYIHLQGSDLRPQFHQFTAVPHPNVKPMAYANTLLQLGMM
As to the kind of experiment: Inhibition of PP5 (unknown origin).

Assay [8] can be described thus: Inhibition of PP7 (unknown origin) using [3H]-phosphohistone as substrate by liquid scintillation counting analysis. On the set-up: species or system Homo sapiens.
The nature of assay [9]: Inhibition of PP2A (unknown origin) using [3H]-phosphohistone as substrate by liquid scintillation counting analysis. On the set-up: species or system Homo sapiens.
A short description of assay [10]: Inhibition of PP1 (unknown origin) using [3H]-phosphohistone as substrate by liquid scintillation counting analysis. More on the design: species or system Homo sapiens.
Assay [11] in a line: Inhibition of PP3 (unknown origin) using [3H]-phosphohistone as substrate by liquid scintillation counting analysis. More on the design: species or system Homo sapiens.
The target in assay [12] is T2, Serine/threonine-protein phosphatase 5. The experiment in a line: Inhibition of PP5 (unknown origin) using [3H]-phosphohistone as substrate by liquid scintillation counting analysis.
The nature of assay [13]: Inhibition of PP4 (unknown origin) using [3H]-phosphohistone as substrate by liquid scintillation counting analysis. On the set-up: species or system Homo sapiens.
For assay [14], the species on record is Homo sapiens. As to the kind of experiment: Activation of PP2A (unknown origin) at 1000 nM relative to control. As to conditions: filed as activator.
The target in assay [15] is T3, Serine/threonine-protein phosphatase 5 (Homo sapiens) (UniProt P53041).
T3 sequence (whole entry): T2 sequence (P53041 whole entry)
As to the kind of experiment: Activation of PP5 (unknown origin) assessed as fold increase in activity at > 100000 nM relative to control. As to conditions: filed as activator.

Assay [16] deals with T3, Serine/threonine-protein phosphatase 5 (Homo sapiens). The experiment in a line: Inhibition of human full length PP5 expressed in Escherichia coli Rosetta gami2(DE3)pLysS at >1 x 10^6nM relative to control. Particulars: dose > 1.0 10^6nM.
Assay [17] can be described thus: Inhibition of PP1 (unknown origin). On the set-up: species or system Homo sapiens.
Assay [18] deals with T4, Serine/threonine-protein phosphatase 2A catalytic subunit alpha isoform (Homo sapiens, UniProt P67775). The experiment in a line: Inhibition of human PP2AC using [3H]-phosphohistone as substrate.
T4 sequence (P67775 whole entry, the tested form may be a part, canonical isoform): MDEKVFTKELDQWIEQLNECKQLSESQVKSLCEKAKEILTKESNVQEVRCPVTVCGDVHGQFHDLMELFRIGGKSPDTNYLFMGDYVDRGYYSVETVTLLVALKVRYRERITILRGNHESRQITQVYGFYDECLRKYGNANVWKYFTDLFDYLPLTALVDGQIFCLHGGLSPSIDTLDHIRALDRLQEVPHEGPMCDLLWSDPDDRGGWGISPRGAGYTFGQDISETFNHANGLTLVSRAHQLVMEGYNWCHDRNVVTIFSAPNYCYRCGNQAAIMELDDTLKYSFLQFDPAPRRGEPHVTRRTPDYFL
For assay [19], the target named is T2, Serine/threonine-protein phosphatase 5. As to the kind of experiment: Activation of recombinant human PP5 (16 to 499 residues) Escherichia coli BL21 (DE3) using pNPP incubated for 60 mins.
Assay [20] shares this target. The experiment in a line: Inhibition of human PP5 using [3H]-phosphohistone as substrate.
Assay [21] deals with T1, Serine/threonine-protein phosphatase 6 catalytic subunit. As to the kind of experiment: Inhibition of PP6 (unknown origin) using [3H]-phosphohistone as substrate by liquid scintillation counting analysis.
Assay [22] is described as follows: Inhibition of porcine PP4 using [33P]-labelled substrate. More on the design: species or system Sus scrofa.
Assay [23] in a line: Inhibition of PP3 (unknown origin). On the set-up: species or system Homo sapiens.
For assay [24], the target named is T4, Serine/threonine-protein phosphatase 2A catalytic subunit alpha isoform. As to the kind of experiment: Inhibition of PP2A (unknown origin).
A short description of assay [25]: Inhibition of PP3 activity in human Jurkat J77 cells assessed as dephosphorylation of substrate. In kind it is cell-based.
Assay [26] in a line: Inhibition of PP4 (unknown origin). On the set-up: species or system Homo sapiens.

With `O=S(=O)(N[C@@H]1CCC[C@H](N2c3ccccc3Oc3ccccc32)[C@H]1O)c1ccc(OC(F)(F)F)cc1`, the GI50 in assay [1] was 5 10^3nM.

Broadly, the IC50 is the concentration that gives 50% inhibition. `C=C1[C@@H](O)[C@@H]2O[C@]3(CC[C@H](/C=C/[C@H](C)[C@@H]4CC(C)=C[C@@]5(OC(C[C@@](C)(O)C(=O)O)CC[C@H]5O)O4)O3)CC[C@H]2O[C@@H]1[C@@H](O)C[C@H](C)[C@H]1O[C@@]2(CCCCO2)CC[C@H]1C` (some centres undefined): the IC50 in assay [2] was 0.23 nM; in assay [3], 0.94 nM; in assay [4], greater than 1000 nM; in assay [5] it was 0.1 nM; in assay [6] it was 1 nM; in assay [7] it was 3.5 nM.

For `C/C=C1/C(=O)N[C@H](OC(=O)O)[C@H](C)C(=O)N[C@@H](CCCNC(=N)N)C(=O)N[C@@H](/C=C/C(C)=C/[C@H](C)[C@H](Cc2ccccc2)OC)[C@H](C)C(=O)N[C@H](OC(=O)O)CCC(=O)N1C`, the IC50 in [8] was greater than 1000 nM; in [9], 0.04 nM; in assay [10], 1.7 nM; in assay [11] it was greater than 1000 nM.

Regarding `C=C/C(=C/C(=O)C[C@H](C)C[C@@H](C)CC[C@H](O)[C@H](C)C(=O)C[C@@H](O)[C@@H](C)[C@@H](C)OC(=O)C[C@@H](O)C1=C(C)C(=O)OC1=O)CC`, the IC50 was 11.9 nM in [12], 0.4 nM in [10], 44.4 nM in [13] and 17500 nM in assay [11].

With `CCCCCCCCc1ccc(CCC(N)(CO)CO)cc1`, the Activity in assay [14] turned out to be 175%.

Take `COc1ccc(-c2nc(Cc3ccc(Cl)cc3)no2)cc1OC`: the fold change (FC) in assay [15] stood at 4.

As a reminder, the inhibition is the percentage by which the read-out fell short of the control. Turning to `Nc1ccc(-c2nc3ccc(-c4nc5ccc(N)cc5[nH]4)cc3[nH]2)cc1`, the inhibition in assay [16] worked out at 40%.

Regarding `CN1CCN(C(=O)C2C(C(=O)O)C3CC[C@@H]2O3)CC1` (single isomer, unassigned), the 50% inhibitory concentration (IC50) in [17] is 2.4 nM; in assay [18], 400 nM.

What is called EC50 is the concentration that produces a half-maximal response. As to `CCCCC/C=C\C/C=C\C/C=C\C/C=C\CCCC(=O)O` [ARACHIDONIC ACID], in [19], the EC50 is 78000 nM.

`COC[C@@H]([C@H](O)[C@H](O)C(=O)NCC[C@H](C)c1nc(/C=C/C[C@@H]2O[C@]3(C[C@@H](O)[C@@H]2C)O[C@H]([C@H](C[C@H](O)[C@H](C)[C@H](O)[C@H](C)/C=C(C)/C(C)=C/C=C/C(C)=C\C#N)OC)[C@H](OP(=O)(O)O)C3(C)C)co1)N(C)C` [CALYCULIN A]: the IC50 in assay [20] is 3 nM; in assay [18] it was 0.25 nM; in assay [9], 1.5 nM; in [21] it was 10 nM; in assay [13] it was 0.2 nM; in assay [11], greater than 1000 nM.

In the case of `C[C@@]12C(=O)OC(=O)[C@]1(C)[C@H]1CC[C@@H]2O1` [CANTHARIDIN], the IC50 was 1700 nM in assay [17]; 400 nM in assay [20]; 50 nM in assay [22]; greater than 500000 nM in assay [23]; 8000 nM in [6]; 600 nM in assay [7]. The compound also came in with an IC50 in assay [24] of 160 nM.

As to `O=C(O)CCCCCCCCCCCC[C@@H]1C=CCC1` [CHAULMOOGRIC ACID], the EC50 in [19] was determined as 130000 nM.

Turning to `C[C@@](O)(/C=C/[C@H]1CC=CC(=O)O1)[C@@H](C[C@@H](O)\C=C/C=C\C=C\CO)OP(=O)(O)O` [FOSTRIECIN], the IC50 in [12] is greater than 10000 nM; in [13], 3 nM; in [11], greater than 100000 nM.

Consider `C=C1C(=O)N[C@H](C)C(=O)N[C@@H](CC(C)C)C(=O)N[C@@H](C(=O)O)[C@H](C)C(=O)N[C@@H](CCCNC(=N)N)C(=O)N[C@@H](/C=C/C(C)=C/[C@H](C)[C@H](Cc2ccccc2)OC)[C@H](C)C(=O)N[C@@H](C(=O)O)CCC(=O)N1C` [MICROCYSTIN-LR] (R[Adda][d(γGlu)][NMeDha][dA]L[dAsp(3S-Me)]-OH; lactam N-7), for which the IC50 in [2] is 10 nM; in assay [3], 0.1 nM; in [5] it was 0.15 nM; in assay [23], 200 nM; in assay [7], 1 nM.

Regarding `C=CC[C@@H]1/C=C(\C)C[C@H](C)C[C@H](OC)[C@H]2O[C@@](O)(C(=O)C(=O)N3CCCC[C@H]3C(=O)O[C@H](/C(C)=C/[C@@H]3CC[C@@H](O)[C@H](OC)C3)[C@H](C)[C@@H](O)CC1=O)[C@H](C)C[C@@H]2OC` [TACROLIMUS ANHYDROUS], the IC50 in assay [25] was found to be 0.4 nM.

In the case of `CO[C@H]([C@H](O)CC(=O)[C@@H](C)[C@@H](O)CC[C@@H](C)[C@@H]1O[C@]2(CC[C@@H](C)[C@H](CC[C@H](C)C(C)=O)O2)CC[C@@H]1C)[C@H](OC(=O)C[C@@H](O)C1=C(C)C(=O)OC1=O)C(C)C` [TAUTOMYCIN], the IC50 was 0.038 nM in [2]; 0.4 nM in [26]; 5.3 nM in assay [9]; greater than 1000 nM in [23]; 10 nM in [7].
